Source: the supplement of paper PMC10307832

Compound: CN1CCN(c2ccc3nc(-c4c(N)c5c(F)cccc5[nH]c4=O)[nH]c3c2)CC1 [Dovitinib] + Cc1cc(Nc2cc(N3CCN(C)CC3)nc(Sc3ccc(NC(=O)C4CC4)cc3)n2)n[nH]1 [Tozasertib] (partner 0.1 µM)
Test: relative viability (nuclei count vs DMSO), 5 days (fraction); higher = more cells survive
Procedure, shortened: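 After 5 days of treatment, lung cancer cells in 1536-well plates were fixed and stained in a single step (final 0.05% Triton X-100, 1% formaldehyde, 1 ug/ml Hoechst) and their nuclei counted on 4× images. Treatment had been applied by pin tool the day after seeding as one drug alone or as a fixed anchor-drug dose with five library-drug doses (not always all listed) in √10 steps. Relative viability is the nuclei count of treated wells divided by that of vehicle wells, and values are medians of duplicate plates.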

Cell Line	relative viability (first compound 0.02 µM)	relative viability (first compound 0.06325 µM)	relative viability (first compound 0.2 µM)	relative viability (first compound 0.6325 µM)	relative viability (first compound 2 µM)
201T	0.917	0.967	0.975	0.946	0.873
A-427	0.222	0.201	0.203	0.162	0.225
ABC-1	0.175	0.208	0.201	0.208	0.192
BEN	0.512	0.526	0.591	0.635	0.419
CAL-12T	0.28	0.3	0.341	0.262	0.285
COR-L23	0.207	0.191	0.194	0.172	0.215
COR-L 105	0.345	0.299	0.365	0.394	0.168
ChaGo-K-1	0.233	0.215	0.241	0.227	0.208
EKVX	0.431	0.367	0.372	0.431	0.38
EMC-BAC-2	0.294	0.299	0.287	0.273	0.3
EPLC-272H	0.343	0.267	0.263	0.343	0.32
H3255	0.741	0.617	0.766	0.638	0.629
HARA	0.117	0.11	0.107	0.102	0.112
HCC-15	0.349	0.439	0.416	0.36	0.441
HCC-44	0.724	1.03	0.99	0.884	0.938
HCC-78	0.712	0.404	0.544	0.464	0.576
HCC-366	0.0642	0.143	0.14	0.127	0.111
HCC-827	0.44	0.455	0.441	0.43	0.469
HOP-62	0.316	0.401	0.346	0.384	0.424
LC-2-ad	0.563	0.487	0.465	0.369	0.498
LCLC-97TM1	0.243	0.207	0.231	0.195	0.235
LCLC-103H	0.539	0.414	0.477	0.415	0.53
LK-2	0.175	0.182	0.182	0.181	0.149
LOU-NH91	0.708	0.659	0.611	0.678	0.776

Cell Line	relative viability (first compound 0.02 µM)	relative viability (first compound 0.06325 µM)	relative viability (first compound 0.2 µM)	relative viability (first compound 0.6325 µM)	relative viability (first compound 2 µM)
LU99A	0.222	0.226	0.272	0.239	0.251
LXF-289	0.214	0.228	0.195	0.189	0.171
NCI-H23	0.293	0.475	0.581	0.354	0.358
NCI-H322M	0.482	0.497	0.523	0.436	0.493
NCI-H358	0.104	0.101	0.115	0.11	0.106
NCI-H441	0.668	0.599	0.559	0.626	0.575
NCI-H460	0.495	0.472	0.421	0.418	0.461
NCI-H520	0.453	0.486	0.409	0.431	0.427
NCI-H522	0.549	0.583	0.536	0.54	0.665
NCI-H596	0.985	0.982	0.963	0.838	0.754
NCI-H647	0.297	0.317	0.452	0.279	0.315
NCI-H650	0.713	0.689	0.725	0.824	0.854
NCI-H661	0.347	0.355	0.36	0.361	0.38
NCI-H727	0.573	0.658	0.588	0.691	0.761
NCI-H838	0.236	0.263	0.282	0.295	0.252
NCI-H1355	0.567	0.566	0.618	0.54	0.596
NCI-H1395	0.721	0.75	0.81	0.765	0.815
NCI-H1437	0.418	0.392	0.435	0.392	0.419
NCI-H1648	0.491	0.532	0.562	0.402	0.564
NCI-H1650	0.394	0.349	0.424	0.325	0.361
NCI-H1651	0.61	0.65	0.691	0.682	0.733
NCI-H1666	0.582	0.651	0.581	0.525	0.625
NCI-H1734	0.287	0.279	0.264	0.223	0.288
NCI-H1755	0.53	0.62	0.554	0.561	0.555

Cell Line	relative viability (first compound 0.02 µM)	relative viability (first compound 0.06325 µM)	relative viability (first compound 0.2 µM)	relative viability (first compound 0.6325 µM)	relative viability (first compound 2 µM)
NCI-H1793	0.32	0.399	0.362	0.266	0.343
NCI-H1915	0.435	0.445	0.46	0.451	0.453
NCI-H1944	0.235	0.258	0.225	0.272	0.255
NCI-H1975	0.72	0.754	0.763	0.689	0.685
NCI-H1993	0.58	0.546	0.601	0.636	0.582
NCI-H2009	0.698	0.761	0.782	0.683	0.886
NCI-H2023	0.324	0.334	0.384	0.261	0.313
NCI-H2085	0.83	0.871	0.851	0.824	0.84
NCI-H2087	0.196	0.271	0.308	0.209	0.286
NCI-H2126	0.833	0.807	0.951	0.794	0.833
NCI-H2170	0.658	0.856	0.733	0.787	0.787
NCI-H2228	0.249	0.281	0.207	0.216	0.265
NCI-H2342	0.602	0.631	0.488	0.488	0.504
NCI-H2347	0.523	0.478	0.503	0.619	0.62
NCI-H2405	0.732	0.722	0.782	0.705	0.883
NCI-H3122	0.37	0.368	0.488	0.406	0.415
PC-3 [JPC-3]	0.838	0.884	0.892	0.889	0.83
PC-14	0.542	0.649	0.684	0.644	0.643
RERF-LC-KJ	0.556	0.369	0.516	0.518	0.511
SK-LU-1	0.305	0.375	0.33	0.325	0.409
SK-MES-1	0.861	0.934	0.893	0.835	0.983
SW 1573	0.183	0.175	0.163	0.144	0.164
UMC-11	0.213	0.201	0.203	0.199	0.22
